From patent US6376512B1, “Therapeutic uses of quinoline derivatives” (Aventis Pharma Deutschland GmbH, priority 1997, dated 2002)
Entries after “also recorded” stand apart in the source; their conditions may differ. Read-outs that look alike come from different tables or passages of the source.

Legend:
[1] = test system: human preadipocytes; assay: Adipocyte differentiation of primary human pre-adipocyte cultures (oil red-O); assay type: cell-based; conditions: for EC50: Homo sapiens, Adipocyte, human adipocyte differentiation in presence of insulin and dexamethasone
Procedure: Evaluation of the capacity to induce differentiation of primary human pre-adipocyte cultures to adipocytes.
The capacity of Compound VI to induce adipocyte differentiation of primary human pre-adipocyte cultures was evaluated and compared directly to Troglitazone®.
Human subcutaneous preadipocytes were isolated from adipose tissue obtained by liposuction surgery. Preadipocytes were inoculated at high density in preadipocyte medium (DME/F-10, 1:1, (v/v) containing 10% fetal calf serum). Cells were kept in preadipocytic medium overnight for attachment. […] The basal medium, which was used as the negative control, contained DME/F-10, biotin (33 μM), pantothenate (17 μM), insulin (100 nM), and dexamethasone (1 μM). The culture was maintained for 14 days with the compound treatment during the first five days. At the end of the culture, cells were fixed in 5% formalin and stained with oil red-O dye. The dye was extracted by isopropanol and quantitated by measuring the optical density at 500 nm.

[2] = target: T1, LTD4 receptor (Homo sapiens, UniProt Q9Y271); assay: LTD4 receptor binding in THP-1 cells; conditions: for Kb: THP-1 cells, read-out: LTD4 Binding (Kb for binding of compound to the LTD4 receptor)
T1 construct: endogenous in cells
T1 sequence (Q9Y271 1-337): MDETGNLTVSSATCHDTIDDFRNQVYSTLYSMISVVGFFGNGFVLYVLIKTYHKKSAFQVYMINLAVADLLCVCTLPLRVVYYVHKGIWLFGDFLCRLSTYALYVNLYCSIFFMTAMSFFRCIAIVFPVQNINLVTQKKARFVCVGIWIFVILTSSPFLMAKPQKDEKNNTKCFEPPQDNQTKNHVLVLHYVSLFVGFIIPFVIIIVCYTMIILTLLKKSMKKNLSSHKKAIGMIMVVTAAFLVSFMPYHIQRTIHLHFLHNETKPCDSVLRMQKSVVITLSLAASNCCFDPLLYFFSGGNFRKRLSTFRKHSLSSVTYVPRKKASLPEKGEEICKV

[3] = target: T2, LTD4 receptor (Cavia porcellus, UniProt Q2NNR5); assay: LTD4 binding, guinea pig receptor; conditions: read-out: Kd, antagonist of the guinea pig LTD4 receptor
T2 sequence (Q2NNR5 1-340): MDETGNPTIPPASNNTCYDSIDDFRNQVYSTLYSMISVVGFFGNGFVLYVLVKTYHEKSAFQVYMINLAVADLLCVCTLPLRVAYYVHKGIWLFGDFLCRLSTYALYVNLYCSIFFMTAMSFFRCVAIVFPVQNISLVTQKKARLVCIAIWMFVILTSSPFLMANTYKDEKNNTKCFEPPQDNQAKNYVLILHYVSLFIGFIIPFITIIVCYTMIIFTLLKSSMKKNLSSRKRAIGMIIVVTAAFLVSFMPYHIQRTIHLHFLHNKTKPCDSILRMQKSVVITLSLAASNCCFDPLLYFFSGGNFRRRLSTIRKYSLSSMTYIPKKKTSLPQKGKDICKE

[4] = test system: db/db mice; assay: Oral (in-feed) efficacy in db/db mice, genetic model of type II diabetes; assay type: in vivo, mouse
Procedure: An in-feed study in this genetic model of type II diabetes was performed. […] The compound of formula VI and Troglitazone® were studied in a genetic model of diabetes (db/db mice). A total of 70 female db/db mice (C57Bl/Ks db+/+; Jackson Labs, Maine), 3 months of age, received either meal chow only (rodent chow # 5001), 50 or 150 mg/kg/day of the compound of formula VI and 50 or 150 mg/kg/day of Troglitazone® mixed with the food. Six animals were sacrificed on Day 0 to obtain baseline values, the remaining 64 animals were randomly distributed into 5 groups. On days 0, 8, 12 and 16 whole blood samples were taken via the tail vein and blood glucose was determined (in duplicate) using the One Touch® gluco-meter. On Day 16, animals were anesthetized using pentobarbital, blood was drawn into EDTA tubes and the following organs were removed: heart, liver, brain, white and brown adipose tissue and the tibia. Plasma was prepared and kept frozen until samples were analyzed for glucose, free fatty acids, insulin and triglycerides. [table] Plasma was analyzed for glucose, triglycerides, free fatty acids and insulin. The latter two methods were slightly modified to use smaller amounts of plasma. Glucose Analysis. Plasma glucose was measured with a Sigma Chemicals Diagnostic kit (#315-500). Triglyceride Analysis. Plasma triglycerides was measured with a Sigma Chemicals Diagnostic kit (#339-500P). Insulin Analysis. Plasma insulin was measured using a radioimmunoassay (RIA) kit from Linco Research Inc. (#RI-13K). This kit was modified slightly using 10 μl of plasma. This kit utilizes an antibody made specifically against rat insulin. The cross-reactivity of this antibody with mouse insulin is 100 percent. Free Fatty Acid Analysis. Plasma free fatty acids were measured using a kit obtained from Wako Chemicals Inc. (NEFA-C; #994-75409). This kit utilizes an in vitro enzymatic colorimetric method for the quantitation of non-esterified fatty acids in serum or plasma. This method relies upon the acylation of coenzyme A by the fatty acids in the presence of added acyl-CoA synthetase. This method was modified slightly to utilize 5 μl of plasma and was performed in a 96-well format (M. Johnson & J. Peters, J. Animal Science 71:753-756, 1993).

[5] = target: T3, PPAR-γ (Homo sapiens, UniProt P37231); assay: PPAR-γ ligand receptor binding; conditions: initial results
T3 sequence (P37231 1-505): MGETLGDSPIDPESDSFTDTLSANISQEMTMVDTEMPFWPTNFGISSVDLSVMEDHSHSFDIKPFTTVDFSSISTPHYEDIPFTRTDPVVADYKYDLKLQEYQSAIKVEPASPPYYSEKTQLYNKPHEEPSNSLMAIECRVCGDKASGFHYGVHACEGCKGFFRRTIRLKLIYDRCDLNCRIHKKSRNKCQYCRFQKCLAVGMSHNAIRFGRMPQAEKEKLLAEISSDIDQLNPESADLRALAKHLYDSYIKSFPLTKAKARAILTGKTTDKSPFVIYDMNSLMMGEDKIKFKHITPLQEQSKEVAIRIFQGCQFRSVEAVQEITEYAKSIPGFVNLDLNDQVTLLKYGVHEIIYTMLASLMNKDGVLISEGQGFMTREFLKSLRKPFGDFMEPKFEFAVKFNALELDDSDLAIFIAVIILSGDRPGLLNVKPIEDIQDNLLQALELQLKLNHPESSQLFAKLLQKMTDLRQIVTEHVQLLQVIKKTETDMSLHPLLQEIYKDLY

With `COC(=O)c1ccc(OCc2cccc(OCc3ccc4ccccc4n3)c2)c(OC)c1` [Example 14, methyl 3-methoxy-4-(3-(2quinolinylmethyloxy)benzyloxy)-benzoate] as the compound, how does the melting point read?
Its melting point is 100 to 101 °C.

Which melting point does the source give for `c1ccc2nc(COc3ccc(COc4ccc(-c5nnn[nH]5)cc4)cc3)ccc2c1` [Example 11, 5-[4-(4-(2-quinolinylmethyloxy)benzyloxy)phenyl]tetrazole] here?
Its melting point is 210 to 213 °C.

For `c1cc(COc2ccc(OCc3ccc4ccccc4n3)cc2)cc(OCc2nnn[nH]2)c1` [Example 32, 5-(3-(4-(2-quinolinylmethyloxy)phenoxymethyl)phenoxymethyl)tetrazole], which melting point is on record?
Its melting point is 131 to 132 °C.

With `c1ccc(Cc2nn[nH]n2)c(COc2ccc(OCc3ccc4ccccc4n3)cc2)c1` [Compound VI, 5-[2-(4-(2-quinolinylmethoxy)phenoxymethyl)benzyl]tetrazole] as the compound, how does the EC50 ([1]; in serum) read?
Its EC50 is 1000 to 3000 nM.

And the EC50 ([1]; serum free medium)?
Its EC50 is 100 to 300 nM.

What about the “activity in the differentiation assay” value ([1]; human preadipocytes) of the same compound?
The value was “active”.

And the “potency in the differentiation assay relative to Troglitazone” value ([1]; human preadipocytes)?
The value was “better potency than Troglitazone®”.

What about the “binding to the LTD4 receptor (in words)” value [2] of the same compound?
The value was “binds tightly”.

And the Kb ([2]; in serum)?
The Kb was 88 nM.

And the Kb [2]?
The Kb was 38 nM.

What about the Kd [3] of the same compound?
Its Kd is 3 nM.

What about the lowering plasma glucose ([4]; db/db mice, 50 or 150 mg/kg/day mixed with the food, Day 16, FIG. 3A) of the same compound?
Its lowering plasma glucose is “effective”.

What about the “lowering plasma free fatty acids” value ([4]; db/db mice, 50 or 150 mg/kg/day mixed with the food, Day 16, FIG. 3B) of the same compound?
Its value is “effective”.

And the lowering plasma triglycerides ([4]; db/db mice, 50 or 150 mg/kg/day mixed with the food, Day 16, FIG. 3C)?
The lowering plasma triglycerides was “effective”.

And the lowering plasma insulin ([4]; db/db mice, 50 or 150 mg/kg/day mixed with the food, Day 16, FIG. 3D)?
The lowering plasma insulin was “effective”.

And the “efficacy relative to Troglitazone” value ([4]; db/db mice, same doses, listed as compound of formula VI)?
Its value is “significantly better efficacy; also recorded: more efficacious than Troglitazone®”.

What about the “potency relative to Troglitazone in lowering glucose” value ([4]; db/db mouse, in-feed administration, FIG. 4) of the same compound?
Its value is “at least three times the potency of Troglitazone®”.

What about the “potency as PPAR-γ ligand receptor binder relative to Troglitazone” value [5] of the same compound?
Its value is “more potent PPAR-γ ligand receptor binder than Troglitazone®”.

With `O=C(O)c1cccc(COc2cccc(OCc3ccc4ccccc4n3)c2)c1` [Example 20, 3-(3-(2-quinolinylmethyloxy)phenoxymethyl)benzoic acid] as the compound, how does the melting point read?
Its melting point is 149 to 151 °C.

For `c1cc(OCc2ccc(-c3nnn[nH]3)cc2)cc(OCc2ccc3ccccc3n2)c1` [Example 27, 5-(4-(3-(2quinolinylmethyloxy)phenoxy-methyl)phenyl)tetrazole], which melting point is on record?
The melting point was 91 °C (dec.).

Which melting point does the source give for `COC(=O)c1cccc(COc2cccc(OCc3ccc4ccccc4n3)c2)c1` [Example 19, methyl 3-(3-(2-quinolinylmethyloxy)phenoxymethyl)benzoate] here?
Its melting point is 93 to 94 °C.

With `c1ccc2nc(COc3ccc(COc4ccc(Cc5nnn[nH]5)cc4)cc3)ccc2c1` [Example 12, 5-[4(4-(2-quinolinylmethyloxy)benzyloxy)benzyl]tetrazole] as the compound, how does the melting point read?
Its melting point is 179 to 181 °C.

For `COc1cc(C(=O)O)ccc1OCc1cccc(OCc2ccc3ccccc3n2)c1` [Example 15, 3-methoxy-4-(3-(2-quinolinylmethyloxy)benzyloxy)benzoic acid], which melting point is on record?
Its melting point is 188 to 190 °C.

With `Cc1c(C)c2c(c(C)c1O)CCC(C)(COc1ccc(CC3SC(=O)NC3=O)cc1)O2` (stereo not shown) [Troglitazone ®, Troglitazone, reference compound] as the compound, how does the EC50 ([1]; serum free medium) read?
The EC50 was > 3000 nM.

What about the Kb [2] of the same compound?
Its Kb is > 10000 nM.

Which melting point does the source give for `N#Cc1ccc(COc2cccc(OCc3ccc4ccccc4n3)c2)cc1` [Example 26, 4-(3-(2quinolinylmethyloxy)phenoxy-methyl)benzonitrile] here?
The melting point was 112.5 °C.

With `N#Cc1cccc(OCc2cccc(OCc3ccc4ccccc4n3)c2)c1` [Example 7, 3-[3-(2-quinolinylmethyloxy)benzyloxy]benzonitrile] as the compound, how does the melting point read?
The melting point was 86 to 87 °C.

With `c1cc(COc2cccc(-c3nnn[nH]3)c2)cc(OCc2ccc3ccccc3n2)c1` [Example 10, 5-[3-(3-(2-quinolinylmethyloxy)benzyloxy)phenyl]tetrazole] as the compound, how does the melting point read?
The melting point was 169 to 172 °C.
